Laboratory results published in patent US20240122932A1, “Methods of Treating B-Cell Malignancy Using Bcl-2 Inhibitor” (BeiGene Switzerland GmbH, priority 2021, published 2024).
Entries after “also recorded” stand apart in the source; their conditions may differ.

How the values were obtained:
[1] = tested on: patients with R/R B-cell malignancies; assay: phase 1 clinical study: efficacy (response, ALC, SPD); format: in vivo, human
Protocol: A phase 1 study (dose escalation and safety expansion) to determine safety, tolerability, maximum tolerated dose ([…]), and recommended phase 2 dose (RP2D) of Compound 1 in patients with R/R B-cell malignancies was conducted. (Table 6-1A).
Part 1 Monotherapy Ramp-Up Schedule and Dose Finding • 1) Cohort 1A: Cohort 1A consists of patients with relapsed/refractory B-cell non-Hodgkin lymphoma (R/R B-cell NHL) excluding mantle cell lymphoma (MCL). These patients are expected to be at low risk of tumor lysis syndrome (low TLS risk), and are treated with a short ramp-up schedule reaching target dose on Day 3. Patients in this cohort receive escalating doses of Compound 1 monotherapy: 40 mg, 80 mg, 160 mg, 320 mg, and 640 mg (unless adjusted by Safety Monitoring Committee [SMC] recommendation). • 2) Cohort 1B is opened, when ≥1 tolerable dose level of Cohort 1A was determined. It consists of patients with low-tumor-burden R/R CLL/SLL. This cohort pursues dose finding, including evaluation of both ramp-up schedule and target dose. Patients increase the ramp-up dose weekly until the target dose for the cohort is reached. The ramp-up steps is 1 mg, 2 mg, 5 mg, 10 mg, 20 mg, 40 mg, 80 mg, 160 mg, 320 mg, and 640 mg (unless adjusted by SMC recommendation). […]. • 3) Cohort 1C: This Cohort consists of patients with high-tumor-burden R/R chronic lymphocytic leukemia/small lymphocytic lymphoma (R/R CLL/SLL). This cohort will not be dosed until the RP2D for Cohort 1B is established. The objective of this cohort is to confirm, in patients with high-tumor-burden CLL/SLL, the safety of the monotherapy ramp-up schedule and RP2D established in patients with low-tumor-burden CLL/SLL. • 4) Cohort 1D: This Cohort consists of patients with R/R MCL. This cohort will not be dosed until the RP2D for Cohort 1B is established. The objective of this cohort is to confirm, in patients with R/R MCL, the safety of the monotherapy ramp-up schedule and RP2D established in patients with low tumor-burden CLL/SLL. • Cohort 1D′: This Cohort consists of patients with R/R MCL. And, the target dosage are 160 and 320 mg. • 5) Cohort 1E: This Cohort consists of patients with R/R waldenstrom macroglobulinemia (R/R WM). This cohort will not be dosed until the RP2D for Cohort 1B is established. The objective of this cohort is to confirm, in patients with R/R WM, the safety of the monotherapy ramp-up schedule and RP2D established in patients with low tumor-burden CLL/SLL.
The study also includes dose escalation and expansion cohorts for the combination of Compound 1 and Bruton tyrosine kinase (BTK) inhibitor Zanubrutinib in patients with selected B-cell malignancy, such as CLL/SLL and mantle cell lymphoma (MCL). (Table 6-2A). Patients in the combination therapy cohorts receive Zanubrutinib 320 mg daily (160 mg twice a day [BID] or 320 mg once a day [QD]) beginning 8-12 weeks before Compound 1 is introduced. And, the corresponding dose-escalation and expansion are conducted in Part 3 and Part 4):
Dose finding is pursued in Patients with R/R CLL/SLL or R/R MCL who are Bel-2-inhibitor naive and have not progressed on a BTK inhibitor, including evaluation of ramp-up schedule and target dose of Compound 1 when used in combination with Zanubrutinib. The Compound 1 dose vary but the Zanubrutinib dose is fixed at 320 mg/day (160 mg twice daily or 320 mg once daily). The ramp-up dose increases weekly until the target dose for the cohort is reached. The ramp-up steps for Compound 1 are 1 mg, 2 mg, 5 mg, 10 mg, 20 mg, 40 mg, 80 mg, 160 mg, 320 mg, and 640 mg (unless adjusted by SMC recommendation).
In all Cohorts of the phase 1 study, Compound 1 is orally administrated once daily (QD). […]

[2] = tested on: RS4;11 Bcl-2G101V KI acute lymphoblastic leukemia (ALL) subcutaneous xenograft; assay: RS4;11 Bcl-2G101V KI ALL subcutaneous xenograft model; format: in vivo, NCG mice
Protocol: The RS4;11 Bcl-2G101V KI cells are of acute lymphoblastic leukemia (ALL) origin and were screened in house. Cells were grown in RPMI 1640 medium (Corning, Cat #10-040-CVR), supplemented with 10% (v/v) fetal bovine serum (Gibco, Cat #10099-141C), and 100 μg/mL of penicillin and streptomycin (Gibco, Cat #15140-122). […] Five to six-week-old female NCG mice were supplied by GemPharmatech Co., Ltd, Jiangsu, China. All animals were maintained under specific pathogen free (SPF) “full barrier” condition with free access to food and water. Mice were group-housed under a 12 h light:dark cycle (lights on at 08:00 h), at a temperature of 20-26° C. and 37-62% humidity in WC cages (Lingyunboji (Beijing) Technology Co., Ltd.). Mice were fed with complete granulated feed with Co60 radio sterilization (Beijing Ke Ao Xie Li Feed Co., Ltd.).
Re-suspended cells were placed on ice prior to inoculation. The right front flank region of each mouse was cleaned with 75% ethanol prior to cell inoculation. Each animal was injected subcutaneously with 1×10^7 cells in 200 μL of cell suspension in the right front flank via a 26-gauge needle. After implantation, primary tumor volume was measured in two dimensions using a caliper.
Animals were randomly assigned into 7 groups with 8 mice per group according to body weight and tumor volume (around 300 mm^3). The groups consisted of vehicle group, 15, 50 and 100 mg/kg of venetoclax with QD dosing, 15, 50 and 100 mg/kg of Compound 1 with QD dosing. Treatments were administered by oral gavage (p.o.) in a volume of […]. Body weight was assessed immediately before dosing and volume dosed was adjusted accordingly.
Individual body weight was recorded twice weekly, with mice being monitored daily for clinical signs of toxicity for the duration of the study. Mice were euthanized using carbon dioxide when their tumor volume reached 2,000 mm^3, the tumor was ulcerated, or body weight loss exceeded 20%.
Tumor volume was calculated using the formula: V=0.5×(a×b^2) where a and b are the long and short diameters of the tumor, respectively.

With `CC(C)c1ccccc1[C@@H]1CCCN1C1CC2(CCN(c3ccc(C(=O)NS(=O)(=O)c4ccc(NCC5CCC(C)(O)CC5)c([N+](=O)[O-])c4)c(Oc4cnc5[nH]ccc5c4)c3)CC2)C1` (stereo partly drawn) [Compound 1, 2-((1H-pyrrolo[2,3-b]pyridin-5-yl)oxy)-N-((4-((((1r,4r)-4-hydroxy-4-methylcyclohexyl)methyl)amino)-3-nitrophenyl)sulfonyl)-4-(2-((S)-2-(2-isopropylphenyl)pyrrolidin-1-yl)-7-azaspiro[3.5]nonan-7-yl)benzamide] the “early response in CLL” value ([1]; CLL/SLL monotherapy, 36-patient data, 80-mg dose level, del (17p) CLL) was 1 of 4 patients with CLL reached first response assessment and achieved partial response, the “patients achieving a response” value ([1]; NHL, monotherapy, 36-patient data, about 5 months of treatment duration, including 1 CR) was 2 patients and the “patients achieving partial response with lymphocytosis (PR-L) or better” value ([1]; monotherapy, R/R CLL/SLL, four of 6 patients, at either 80 or 160 mg) was 67%. For the same compound, the patients responded ([1]; monotherapy, R/R NHL, two of 20 patients, 1 PR at 160 mg and 1 CR at 320 mg) was 10%, the “patients with minor response” value ([1]; monotherapy, R/R WM, one of 2 patients, at 80 mg) was 50% and the “reduction in SPD from baseline” value ([1]; monotherapy, patients with R/R NHL) was “significant reduction in SPD form baseline were seen in most patients; also recorded: significant reduction in SPD from baseline were seen in most patients”. For the same compound, the “reduction in absolute lymphocyte count (ALC)” value ([1]; patients with CLL during ramp-up, monotherapy and combination therapy, seen at dose levels as low as 1 mg) was “significant reduction in absolute lymphocyte count (ALC) was noted among all patients with CLL during ramp-up” and the “blood MRD (minimal residual disease) negativity” value ([1]; patients with CLL, monotherapy or combination with Zanubrutinib) was “negativity was observed in 160 mg cohorts after 6 months treatment but not in 40 mg and 80 mg cohorts”.
In the case of `CC1(C)CCC(CN2CCN(c3ccc(C(=O)NS(=O)(=O)c4ccc(NCC5CCOCC5)c([N+](=O)[O-])c4)c(Oc4cnc5[nH]ccc5c4)c3)CC2)=C(c2ccc(Cl)cc2)C1` [Venetoclax, reference compound], the “Mean Tumor Volume (Day 10) (mm^3 ± SEM)” value ([2]; 15 mg/kg QD × 10 p.o.) is reported as 976.6 ± 64.0 mm^3, the “TGI (Day 10)” value ([2]; 15 mg/kg QD × 10 p.o.) is reported as 44% and the “Mean Tumor Volume (Day 10) (mm^3 ± SEM)” value ([2]; 50 mg/kg QD × 10 p.o.) is reported as 711.8 ± 49.7 mm^3. The “TGI (Day 10)” value ([2]; 50 mg/kg QD × 10 p.o.) was 65%, the “Mean Tumor Volume (Day 10) (mm^3 ± SEM)” value ([2]; 100 mg/kg QD × 10 p.o.) was 530.4 ± 75.4 mm^3 and the “TGI (Day 10)” value ([2]; 100 mg/kg QD × 10 p.o.) was 80%.
